The values that follow come from PubChem BioAssay (NCI).

What all share (experiment): growth of human tumour cells (NCI), 48 h
For test [1], the system named is A549 NSCLC.
Test [2] concerns SW-620 colon.
Test [3] relates to CAKI-1 renal.
Test [4] has as its system CCRF-CEM leukemia.
Test [5] concerns COLO 205 colon.
In test [6] the test system is OVCAR-5 ovarian.
For test [7], the system named is SK-MEL-2 melanoma.
Test [8] concerns A498 renal.
The subject of test [9] is SNB-75 CNS.
The subject of test [10] is NCI/ADR-RES ovarian.

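Values below derive from 48-hour exposures of cells grown in 96-well plates, with endpoints linearly interpolated between the two concentrations bracketing the appropriate inhibition level. GI50 marks 50% less growth. TGI: total growth inhibition.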 Some results are limits rather than exact numbers.

Consider `Cn1nc(-c2ccccc2)c(C(=O)/C=C/c2ccc(Cl)cc2)c(N2CCCCC2)c1=O`, for which the TGI in test [1] was 8.65 µM; in test [2] it was 16.6 µM; in [3], 3.94 µM; in [4], 5.56 µM; in test [5], 4.35 µM.

Consider `CC1=C[C@]2(O)C(=O)[C@H](C)C[C@H]3[C@@H](CC[C@@](C)(O)/C=C\2C1=O)C3(C)C`, for which the TGI was more than 100 µM in test [1]; more than 100 µM in [6]; 35.9 µM in [2]; 37.9 µM in test [7]; 55.4 µM in [3]; more than 100 µM in [4]. The TGI in test [8] is 47.2 µM; in test [9], more than 100 µM; in [5], 30.6 µM.

Turning to `CCOc1ccc(N=Cc2ccc3cc(C)ccc3n2)cc1`, the TGI was more than 100 µM in test [1]; more than 100 µM in test [6]; more than 100 µM in test [2]; more than 100 µM in [7]; more than 100 µM in [3]; 60.6 µM in [4]. Further, the TGI in test [8], in [9] and in [5] was more than 100 µM each time.

`CC(C)(C)CC(C)(C)c1cc2c(O)c(c1)Cc1cc(C(C)(C)CC(C)(C)C)cc(c1O)Cc1cc(C(C)(C)CC(C)(C)C)cc(c1O)Cc1cc(C(C)(C)CC(C)(C)C)cc(c1O)Cc1cc(C(C)(C)CC(C)(C)C)cc(c1O)C2`: the TGI in [1], in [6], in [2], in test [7], in [4] and in [9] was more than 100 µM each time. Moreover, the TGI in test [5] is more than 100 µM.

With `COC(=O)C1=C(O)c2cc(-c3ccccc3)c(-c3ccccc3)c(C#N)c2NC(=O)C1`, the TGI in test [1] was 54.4 µM; in test [7], more than 100 µM; in [3], 85.8 µM; in test [4] it was more than 100 µM; in test [8], more than 100 µM; in test [9] it was 93.3 µM. Moreover, the TGI in [5] was more than 100 µM.

With `COc1ccc2c3c([nH]c2c1[N+](=O)[O-])C(C)N(Cc1ccc([N+](=O)[O-])cc1)CC3` (configuration not stated), the TGI in [1] was more than 100 µM; in test [6], more than 100 µM; in test [2], more than 100 µM; in test [7], 41 µM; in test [3] it was 32.5 µM; in test [4], more than 100 µM. Besides, the TGI in test [8] is 63.7 µM; in [5], 35.8 µM.

As to `O=C1C=CC(=O)C12CCc1ccccc12`, the TGI was more than 100 µM in test [1]; more than 100 µM in test [6]; more than 100 µM in test [2]; more than 100 µM in test [7]; more than 31.6 µM in test [3]; more than 95.2 µM in test [4]. For the same compound, the TGI in test [8], in [9] and in test [5] was more than 100 µM throughout.

As for `COc1ccc(-c2cc(=O)c3ccccc3o2)cc1N`, the TGI in test [1], in test [6], in [2], in test [7], in [3] and in [4] was more than 100 µM each time. The TGI was more than 100 µM in test [8], 93.2 µM in [9] and more than 100 µM in test [5].

For the compound `O=C1[C@H]2ON(c3ccccc3)C(c3ccccc3)[C@H]2C(=O)N1c1ccc(Cc2ccc(N3C(=O)[C@@H]4ON(c5ccccc5)C(c5ccccc5)[C@@H]4C3=O)cc2)cc1` (some centres not stated), the TGI in test [1], in test [6], in [2], in test [7], in [3] and in test [4] was more than 100 µM each time. Besides, the TGI in test [8], in test [9] and in test [5] was more than 100 µM each time.

Take `O=C1O[C@H](c2ccccc2)[C@@H]2CC3(CCN12)OCCO3`: the TGI in test [1], in test [6], in [2], in test [7], in [3] and in test [4] was more than 100 µM in each case. For the same compound, the TGI in [8] and in [5] was more than 100 µM in each case.

For the compound `CCN(CC)CCCNC(=O)C1COc2cc(-c3cc(=O)c4ccccc4o3)ccc2O1` (configuration not stated), the TGI in test [1], in [6], in test [2], in [3], in [4] and in test [8] was more than 100 µM throughout. The TGI in test [9] was more than 100 µM; in test [5], 81.4 µM.

On to `O=C(O)NC(c1ccccc1)C(NC(=O)c1ccccc1)c1ccccc1` (configuration not stated), for which the TGI in test [1], in [6], in test [2], in [7], in test [3] and in test [8] was more than 100 µM throughout. Besides, the TGI in [9] and in [5] was more than 100 µM in each case.

`CCOC(=O)Cc1ccc2c(c1O)C(=O)c1c(ccc(CC(=O)OCC)c1O)C2=O`: the TGI in test [1], in [6], in test [2], in test [7], in [4] and in test [8] was more than 100 µM each time. Further, the TGI in test [9] and in test [5] was more than 100 µM in each case.

Regarding `O=C(c1ccccc1)c1c(-c2ccccc2)sc2nc3ccccc3nc12`, the TGI in test [1], in [6], in test [2], in test [7], in test [3] and in [4] was more than 100 µM in each case. Moreover, the TGI in test [8] was more than 100 µM; in test [9], 85.6 µM; in [5], more than 100 µM.

Turning to `CC(=O)c1cccc(C)c1C(=O)O`, the TGI in test [1], in [6], in test [2], in test [7], in [3] and in test [4] was more than 100 µM throughout. In addition, the TGI in [8], in [9] and in test [5] was more than 100 µM in each case.

For `CCOC(=O)/C(=C\c1ccc(N(CCC#N)CCC#N)cc1)NC(=O)c1cc([N+](=O)[O-])ccc1Cl`, the TGI in test [1], in test [6], in [2], in [7], in test [3] and in [4] was more than 100 µM in each case. Besides, the TGI in test [8], in test [9] and in test [5] was more than 100 µM each time.

In the case of `COc1cc(OC)c(SSCCCCS(=O)O)c(OC)c1`, the TGI in test [1] is 40.3 µM; in test [6], 30.5 µM; in test [2] it was 28.4 µM; in test [7] it was 54.6 µM; in test [4] it was 42.9 µM; in test [8], 33.6 µM. Moreover, the TGI in test [9] turned out to be 25.4 µM; in test [5], 35.7 µM.

As for `CC(=O)OC1CCn2nnc(CO)c21` (configuration not stated), the TGI in test [1], in [6], in [2], in [7], in [3] and in test [9] was more than 100 µM each time. In test [5], this compound showed a TGI of more than 100 µM.

With `CC(=O)CC(N)=O`, the TGI in [1], in test [6], in [2], in test [7], in test [3] and in test [4] was more than 100 µM throughout. Also, the TGI in test [8], in [9] and in [5] was more than 100 µM in each case.

For the compound `CC1=C(C(=O)Nc2cc(=O)n(C)c(=O)n2C)C(c2cccc([N+](=O)[O-])c2)C(C(=O)Nc2cc(=O)n(C)c(=O)n2C)=C(C)N1`, the TGI in [1], in test [6], in test [2], in [7], in test [3] and in test [4] was more than 100 µM each time. The TGI was more than 100 µM in [8], 99.5 µM in test [9] and more than 100 µM in test [5].

With `CC1=C(C(=O)Nc2ccc(Cl)c(Cl)c2)C(c2cccc(Cl)c2)NC(=O)N1` (configuration not stated), the GI50 in [1] is 17.3 µM; in test [6], 11.2 µM; in test [10] it was 13.3 µM; in test [2], 12.6 µM; in test [7], 9.95 µM; in test [3], 9.42 µM. Also, the GI50 is 9.67 µM in test [9] and 9.42 µM in test [5]. Further, the TGI in [1] is more than 50 µM; in test [6] it was 30.9 µM; in [10], 33.5 µM; in test [2] it was more than 29.4 µM; in test [7] it was 19.3 µM; in test [3], 19.9 µM. In addition, the values for the TGI in [9] and in test [5] were 28.7 µM and 21.2 µM, respectively.

`CN1CC(=O)N(C)c2ncn(Cc3ccccc3)c2C1=O`: the TGI in test [1], in [2], in [4], in [8], in test [9] and in test [5] was more than 100 µM throughout.

For `C=C(C#N)C1OCC2OC(C)(C)OC21` (configuration not stated), the TGI in test [1] was more than 100 µM; in test [6] it was 33.9 µM; in test [2], 39.6 µM; in test [7] it was 77.2 µM; in [3] it was 49.1 µM; in test [4], 48.8 µM. The TGI came out at 51.2 µM in test [8], 35.9 µM in test [9] and 30.3 µM in test [5].

Take `Cc1cccc(C)c1CO`: the TGI in [1], in test [6], in test [2], in test [7], in test [3] and in test [4] was more than 100 µM throughout. Also, the TGI in [9] and in test [5] was more than 100 µM throughout.

Turning to `CC(C)[O-].CC(C)[O-].O=C1C=C([O-])C(=O)c2ccccc21.O=C1C=C([O-])C(=O)c2ccccc21.[Ti+4]`, the GI50 in test [1] was 47.2 µM; in [6], more than 100 µM; in test [2] it was 44.2 µM; in test [7], 17.2 µM; in [3], more than 91.3 µM; in test [4], more than 73 µM. In addition, the results for the GI50 in [8], in test [9] and in test [5] were more than 100 µM, 17.5 µM and 30 µM, respectively. Also, the TGI in test [1] is more than 100 µM; in test [6], more than 100 µM; in [2], more than 100 µM; in test [7], more than 71.2 µM; in [3], more than 100 µM; in test [4], more than 100 µM. In addition, the TGI in test [8], in test [9] and in test [5] was more than 100 µM throughout.

Regarding `O=C(CCc1nnc2s/c(=C\c3ccc(Cl)c(Cl)c3)c(=O)n12)Nc1ccc(Cl)c(Cl)c1`, the TGI in test [1] was more than 100 µM; in [6] it was more than 100 µM; in [2], more than 100 µM; in [3], more than 100 µM; in test [4], 60.2 µM; in test [8], more than 100 µM. The TGI in test [9] and in test [5] was more than 100 µM each time.

On to `CC(=O)[CH-]C(=O)c1ccccc1.CC(=O)[CH-]C(=O)c1ccccc1.CC(C)CCCC(C)[C@H]1CCC2[C@@H]3CC=C4C[C@@H]([O-])CC[C@]4(C)C3CC[C@@]21C.CC(C)CCCC(C)[C@H]1CCC2[C@@H]3CC=C4C[C@@H]([O-])CC[C@]4(C)C3CC[C@@]21C.[Ti+4]` (some centres not stated), for which the GI50 in [2], in [7], in [3], in test [4], in test [8] and in test [9] was more than 100 µM in each case. Moreover, the GI50 in test [5] is more than 100 µM. In addition, the TGI in test [2], in [7], in [3], in test [4], in test [8] and in test [9] was more than 100 µM throughout. In addition, the TGI in [5] was more than 100 µM.

For `COc1ccc(NC(=O)CC/C(CC(=O)C(C)(C)C)=N\NC(=O)C(=O)NN)cc1`, the TGI in test [1], in test [6], in test [2], in test [7], in test [3] and in test [4] was more than 100 µM throughout. The TGI in test [8], in [9] and in [5] was more than 100 µM throughout.
